Experimental data reported in patent US20040132779A1, “Microsomal Triglyceride transfer protein inhibitor” (Pfizer Inc, priority 2002, published 2004).

Experiment: Reduction of food intake assay
Assay type: in vivo
Conditions: beagles, oral gavage, 0.1, 0.25 or 0.5 mg/kg, Days 0 to 6
Protocol: Reduction of Food Intake Assay
Healthy, young adult (1-3 years of age) male and female beagles (Marshall Farms, North Rose, New York, N.Y. 14516) weighing 13-18 kg at the start of the treatment period are employed as test subjects.
The test compound is provided as a powder. The dosing solution, administered by oral gavage, is provided employing a 70/30 polyethylene glycol 400/water solution as the test vehicle. The dosing solution is prepared at 0.1 to 0.5 mg/ml activity so that 1 ml is delivered per kg body weight at dosages of 0.1 to 0.5 mg/kg. Following a seven day acclimation period, a ten day evaluation study is effected.
The study consists of three groups of animals containing 2 male and 2 female dogs, each. Each group of four animals is randomly assigned to receive 0.1, 0.25 or 0.5 mg/kg test compound. On Days 0 to 6, each dog receives the dosing solution administered as a single dose at Time 0 on each dosing day via a feeding tube. This is followed by a 10 ml water rinse to ensure total delivery of dosing solution. Each test animal is permitted ad libitum access to water and IAMS Mini-Chunks® (The Iams Company, P.O. Box 14597, Dayton, Ohio) dry food each day during the study and approximately 0.5-1 hours post-dose.

Cc1cc(CNC(=O)[C@@H](NC(=O)C(F)(F)F)c2ccccc2)ccc1NC(=O)c1ccccc1-c1ccc(C(F)(F)F)cc1 [Example 1A-1, (S) 4′-Trifluoromethyl-biphenyl-2-carboxylic Acid (2-methyl-4-{[2-phenyl-2-(2,2,2-trifluoro-acetylamino)-acetylamino]-methyl}-phenyl)-amide]
body weight: reduction in body weight
fecal fat: increased fecal fat
food intake: reduction in food intake
serum cholesterol: reduction in serum cholesterol
